Measurements: patent US20240148709A1, “METHODS OF TREATING EYE PAIN AND EYE DISORDERS” (Aisa Pharma, Inc., priority 2022, published 2024)

Test system: participants with SSc-RP
Test: Scleroderma Health Assessment Questionnaire (SHAQ), Phase 2a study Part A
Assay type: in vivo, human
Conditions: cilnidipine 10 mg and/or tadalafil 5 mg arms
Procedure: Part A—double-blind, placebo-controlled, parallel-group, dose selection, will assess the safety and efficacy of two doses of cilnidipine (10 mg and 20 mg), alone and in combination with tadalafil. A total of 36 participants will be randomized to one of six prespecified treatment arms. Refer to FIG. 1 for treatment arms in Part A of the study. Dosing last for 12 (±2) days in which participants will self-administer daily doses of assigned treatment in the morning. Each participant will take one capsule and one tablet to blind the active therapy being received.
The standard, validated, patient reported outcome measures tool for SSc patients, the SHAQ, will be collected at the time points specified in the study schedules (FIG. 2 and FIGS. 3A and 3B) to assess the participant's quality of life. The SHAQ includes a Raynaud's VAS that will also be reported separately.
Results: Patients in the study were administered the Scleroderma Health Assessment Questionnaire (SHAQ) at the time of study entry and during clinic visits following the treatment period. The study is a two-part, parallel arm design, prospective, double-blind, randomized study conducted in Australia (Flinders Medical Center). 27 patients were randomized into the first phase of the study, following which a DSMB meeting was held, which reviewed data on the primary study endpoint and key Raynaud's secondary endpoints. Data on the SHAQ was not available for the DSMB to review. The mITT population, in which any data was available post treatment was 24 patients was the analysis population for this first part of the study. The second part (i.e., part B) of the study will randomize 36 patients in a double blind, randomized, prospective, placebo controlled, crossover study. In the first part (i.e., Part A) of the study for which data is presented, patients were randomized into 6 groups, cilnidipine at two doses (10 and 20 mg) alone and in combination with tadalafil 5 mg, tadalafil 5 mg alone, and placebo. […] The DSMB recommended that the study proceed into its double blind prospective cross overpowered second phase and compare cilnidipine 20 mg alone to placebo.

What does the source list for `COCCOC(=O)C1=C(C)NC(C)=C(C(=O)OC/C=C/c2ccccc2)C1c1cccc([N+](=O)[O-])c1` (stereo not shown) [Cilnidipine, cilnidipine]?
SHAQ Overall Change in Severity, Percent Change from Baseline, Max: −26.8%; SHAQ Overall Change in Severity, Percent Change from Baseline, Mean (SD): −56.96 (38.271) %; SHAQ Overall Change in Severity, Percent Change from Baseline, Median: −44.12%; SHAQ Overall Change in Severity, Percent Change from Baseline, Min: −100.0%; SHAQ Overall Change in Severity, Percent Change from Baseline, Q1: −100.00%; SHAQ Overall Change in Severity, Percent Change from Baseline, Q3: −26.76%; SHAQ Standard disability index, Change from Baseline, Max: 0.00, 0.00; SHAQ Standard disability index, Change from Baseline, Mean (SD): 0.0 (0.0000); SHAQ Standard disability index, Change from Baseline, Median: 0.000; SHAQ Standard disability index, Change from Baseline, Min: 0.00, 0.00; SHAQ Standard disability index, Change from Baseline, Q1: 0.000, 0.000; SHAQ Standard disability index, Change from Baseline, Q3: 0.000, 0.000; SHAQ Standard disability index, In Clinic Visit (Day 12), Max: 1.50; SHAQ Standard disability index, In Clinic Visit (Day 12), Mean (SD): 0.656 (0.7731); SHAQ Standard disability index, In Clinic Visit (Day 12), Median: 0.563; SHAQ Standard disability index, In Clinic Visit (Day 12), Min: 0.00; SHAQ Standard disability index, In Clinic Visit (Day 12), Q1: 0.000; SHAQ Standard disability index, In Clinic Visit (Day 12), Q3: 1.313; SHAQ Standard disability index, Percent Change from Baseline, Max: 0.0, 0.0%; SHAQ Standard disability index, Percent Change from Baseline, Mean (SD): 0.0 (0.000) %; SHAQ Standard disability index, Percent Change from Baseline, Median: 0.00%; SHAQ Standard disability index, Percent Change from Baseline, Min: 0.0, 0.0%; SHAQ Standard disability index, Percent Change from Baseline, Q1: 0.00, 0.00%; SHAQ Standard disability index, Percent Change from Baseline, Q3: 0.00, 0.00%; SHAQ Visual Analog Scale-Breathing Problems, Change from Baseline, Max: 0.00; SHAQ Visual Analog Scale-Breathing Problems, Change from Baseline, Mean (SD): −0.300 (0.6000); SHAQ Visual Analog Scale-Breathing Problems, Change from Baseline, Median: 0.000; SHAQ Visual Analog Scale-Breathing Problems, Change from Baseline, Min: −1.20; SHAQ Visual Analog Scale-Breathing Problems, Change from Baseline, Q1: −0.600; SHAQ Visual Analog Scale-Breathing Problems, Change from Baseline, Q3: 0.000; SHAQ Visual Analog Scale-Breathing Problems, In Clinic Visit (Day 12), Max: 6.30; SHAQ Visual Analog Scale-Breathing Problems, In Clinic Visit (Day 12), Mean (SD): 1.575 (3.1500); SHAQ Visual Analog Scale-Breathing Problems, In Clinic Visit (Day 12), Median: 0.000; SHAQ Visual Analog Scale-Breathing Problems, In Clinic Visit (Day 12), Min: 0.00; SHAQ Visual Analog Scale-Breathing Problems, In Clinic Visit (Day 12), Q1: 0.000; SHAQ Visual Analog Scale-Breathing Problems, In Clinic Visit (Day 12), Q3: 3.150; SHAQ Visual Analog Scale-Breathing Problems, Percent Change from Baseline, Max: −16.0, −16.0%; SHAQ Visual Analog Scale-Breathing Problems, Percent Change from Baseline, Mean (SD): −16.00%; SHAQ Visual Analog Scale-Breathing Problems, Percent Change from Baseline, Median: −16.00%; SHAQ Visual Analog Scale-Breathing Problems, Percent Change from Baseline, Min: −16.0, −16.0%; SHAQ Visual Analog Scale-Breathing Problems, Percent Change from Baseline, Q1: −16.00, −16.00%; SHAQ Visual Analog Scale-Breathing Problems, Percent Change from Baseline, Q3: −16.00, −16.00%; SHAQ Visual Analog Scale-Intestinal Problems, Change from Baseline, Max: 0.00; SHAQ Visual Analog Scale-Intestinal Problems, Change from Baseline, Mean (SD): −1.875 (2.1838); SHAQ Visual Analog Scale-Intestinal Problems, Change from Baseline, Median: −1.550; SHAQ Visual Analog Scale-Intestinal Problems, Change from Baseline, Min: −4.40; SHAQ Visual Analog Scale-Intestinal Problems, Change from Baseline, Q1: −3.700; SHAQ Visual Analog Scale-Intestinal Problems, Change from Baseline, Q3: −0.050; SHAQ Visual Analog Scale-Intestinal Problems, In Clinic Visit (Day 12), Max: 3.80; SHAQ Visual Analog Scale-Intestinal Problems, In Clinic Visit (Day 12), Mean (SD): 1.100 (1.8221); SHAQ Visual Analog Scale-Intestinal Problems, In Clinic Visit (Day 12), Median: 0.300; SHAQ Visual Analog Scale-Intestinal Problems, In Clinic Visit (Day 12), Min: 0.00; SHAQ Visual Analog Scale-Intestinal Problems, In Clinic Visit (Day 12), Q1: 0.000; SHAQ Visual Analog Scale-Intestinal Problems, In Clinic Visit (Day 12), Q3: 2.200; SHAQ Visual Analog Scale-Intestinal Problems, Percent Change from Baseline, Max: −44.1%; SHAQ Visual Analog Scale-Intestinal Problems, Percent Change from Baseline, Mean (SD): −77.37 (29.418) %; SHAQ Visual Analog Scale-Intestinal Problems, Percent Change from Baseline, Median: −88.00%; SHAQ Visual Analog Scale-Intestinal Problems, Percent Change from Baseline, Min: −100.0%; SHAQ Visual Analog Scale-Intestinal Problems, Percent Change from Baseline, Q1: −100.00%; SHAQ Visual Analog Scale-Intestinal Problems, Percent Change from Baseline, Q3: −44.12%; SHAQ Visual Analog Scale-Pain, Change from Baseline, Max: 0.30; SHAQ Visual Analog Scale-Pain, Change from Baseline, Mean (SD): −0.100 (0.4243); SHAQ Visual Analog Scale-Pain, Change from Baseline, Median: 0.000; SHAQ Visual Analog Scale-Pain, Change from Baseline, Min: −0.70; SHAQ Visual Analog Scale-Pain, Change from Baseline, Q1: −0.350; SHAQ Visual Analog Scale-Pain, Change from Baseline, Q3: 0.150; SHAQ Visual Analog Scale-Pain, In Clinic Visit (Day 12), Max: 3.60; SHAQ Visual Analog Scale-Pain, In Clinic Visit (Day 12), Mean (SD): 1.875 (1.6641); SHAQ Visual Analog Scale-Pain, In Clinic Visit (Day 12), Median: 1.950; SHAQ Visual Analog Scale-Pain, In Clinic Visit (Day 12), Min: 0.00; SHAQ Visual Analog Scale-Pain, In Clinic Visit (Day 12), Q1: 0.500; SHAQ Visual Analog Scale-Pain, In Clinic Visit (Day 12), Q3: 3.250; SHAQ Visual Analog Scale-Pain, Percent Change from Baseline, Max: 11.5%; SHAQ Visual Analog Scale-Pain, Percent Change from Baseline, Mean (SD): −9.88 (27.711) %; SHAQ Visual Analog Scale-Pain, Percent Change from Baseline, Median: 0.00%; SHAQ Visual Analog Scale-Pain, Percent Change from Baseline, Min: −41.2%; SHAQ Visual Analog Scale-Pain, Percent Change from Baseline, Q1: −41.18%; SHAQ Visual Analog Scale-Pain, Percent Change from Baseline, Q3: 11.54%; SHAQ Visual Analog Scale-Raynaud's, Change from Baseline, Max: 1.50; SHAQ Visual Analog Scale-Raynaud's, Change from Baseline, Mean (SD): 0.325 (1.0468); SHAQ Visual Analog Scale-Raynaud's, Change from Baseline, Median: 0.350; SHAQ Visual Analog Scale-Raynaud's, Change from Baseline, Min: −0.90; SHAQ Visual Analog Scale-Raynaud's, Change from Baseline, Q1: −0.500; SHAQ Visual Analog Scale-Raynaud's, Change from Baseline, Q3: 1.150; SHAQ Visual Analog Scale-Raynaud's, In Clinic Visit (Day 12), Max: 4.30
